Test results from US9114126B2, “Na/K-ATPase ligands, ouabain antagonists, assays and uses thereof” (The University of Toledo, priority 2009, dated 2015).
“Also recorded” adds a separate entry of the source.

Assays:
[1] = molecular target: T1, purified Na/K-ATPase (Sus scrofa (Pig), UniProt P05024); test: Na/K-ATPase activity, 96-well high throughput screen assay (released phosphate, BIOMOL GREEN); type: biochemical; details: for effect of changes in K+ concentration on compound-induced inhibition of Na/K-ATPase: data not shown
Description: The purified Na/K-ATPase was prepared from pig kidney. The specific activities of Na/K-ATPase of various kidney preparations were in the range of 900-1,200 μmol/mg/h, which were greater than 95% of the total ATPase activity. The high throughput screen is conducted in a 96-well format with the final reaction volume of 100 μl containing the following components: 100 mM NaCl, 20 mM KCl, 1 mM MgCl2, 1 mM EGTA, 20 mM Tris-HCl (pH 7.4) and 0.2 μg of purified Na/K-ATPase. After compounds were added, mixtures were incubated for 15 min at 37° C. for 15 min and reaction was initiated by adding 2 mM ATP.Mg mixture.
Reactions were carried out for 15 min and then stopped by the addition of 100 μl ice-cold trichloroacetic acid. Reaction mixtures were cleared by centrifugation, and assayed for released phosphate using the BIOMOL GREEN™ Reagent according to the manufacturer's instructions. In addition, the control Na/K-ATPase activity was measured in the presence and absence of 1 mM ouabain, and taken as 100%. Furthermore, 5 μM ouabain and 0.1% of DMSO were included in each plate as a positive and a vehicle control, respectively.

[2] = test system: EGF or dopamine-induced ERK activation in LLC-PK1 cells; test: EGF- or dopamine-induced activation of ERKs in LLC-PK1 cells after MB5 pretreatment; type: cell-based, pig; details: MB5 1 nM, 10 μM, 15 min pretreatment
Description: FIG. 9E: Effects of MB5 on stimuli-induced activation of ERKs. LLC-PK1 cells were pretreated with different concentrations of MB5 (1 nM, 10 μM) for 15 min, exposed to epidermal growth factor (EGF) or Dopamine stimuli for either 10 or 3 min, and assayed for active ERKs as in FIG. 9A. A representative set of images is shown.
(§1) LLC-PK1 cells grown on coverslips were serum starved for 24 h and treated with MB5 or ouabain for different times Immunostaining of p-ERK was performed using the commercial available ERK/MAPK (Phospho-Thr202/Tyr204) Phosphorylation/Translocation Cell-Based Assay Kit according to the manufacturer's instructions. The signals were detected by a Leica confocal microscope. Leica confocal software was used for data analysis.
Ouabain stimulates protein kinase cascades via a Src-dependent pathway in LLC-PK1 cells. To determine whether MB5 can antagonize ouabain-induced signal transduction, treated LLC-PK1 cells were pre-treated with different concentrations of MB5 for 15 min and then exposed to ouabain or other stimuli.

[3] = test system: ouabain-induced ERK activation in LLC-PK1 cells; test: Ouabain-induced activation of ERKs in LLC-PK1 cells after MB5 pretreatment; type: cell-based, pig; details: 15 min pretreatment, ouabain 1 nM and 100 nM
Description: FIG. 9B: Effects of MB5 on ouabain-induced activation of ERKs. LLC-PK1 cells were pretreated with different concentrations of MB5 (1 nM, 10 μM) for 15 min, exposed to 1 nM ouabain for 10 min, and assayed for active ERKs as in FIG. 9A. A representative set of images is shown.
FIG. 9C: Effects of MB5 on ouabain-induced activation of ERKs. LLC-PK1 cells were pretreated with different concentrations of MB5 (1 nM, 10 μM) for 15 min, exposed to 100 nM ouabain for 10 min, and assayed for active ERKs as in FIG. 9A. A representative set of images is shown.
FIG. 9D: Effects of MB5 on ouabain-induced activation of ERKs. LLC-PK1 cells were pretreated with different concentrations of MB5 (1 nM, 10 μM) for 15 min, exposed to 1 nM ouabain for 1 hour, and assayed for active ERKs as in FIG. 9A. A representative set of images is shown.
as §1
Ouabain stimulates protein kinase cascades via a Src-dependent pathway in LLC-PK1 cells. […]

[4] = molecular target: T1, purified Na/K-ATPase; test: Na/K-ATPase activity assay (Example II), two-phase inhibition; type: biochemical
Description: FIGS. 7A-7C: Dose-dependent inhibition of Na/K-ATPase by MB5: FIG. 7A: The two phase inhibition of both low and high affinity.
The purified Na/K-ATPase was prepared from pig kidney. The specific activities of Na/K-ATPase of various kidney preparations were in the range of 900-1,200 μmol/mg/h, which were greater than 95% of the total ATPase activity. The Na/K-ATPase assay was conducted in the following reaction buffer with the final volume of 500 μl: 100 mM NaCl, 20 mM KCl, 1 mM MgCl2, 1 mM EGTA, 20 mM Tris-HCl (pH 7.4) and 1 μg of purified Na/K-ATPase. After compounds were added, mixtures were incubated for 15 min at 37° C. for 15 min and reaction was initiated by adding 2 mM ATP.Mg mixture. Reactions were carried out for 15 min and then stopped by the addition of 300 μl ice-cold trichloroacetic acid. Reaction mixtures were cleared by centrifugation, and assayed for released phosphate using the BIOMOL GREEN™ Reagent according to the manufacturer's instructions.

[5] = molecular target: T1, purified Na/K-ATPase; test: 3H-ouabain binding to the purified Na/K-ATPase; details: 20 nM 3H ouabain
Description: FIG. 8: Effects of MB5 on ouabain binding to the purified Na/K-ATPase. The purified Na/K-ATPase (2 μg) was incubated with 20 nM ^3H ouabain in the presence of different concentrations of MB5.

[6] = molecular target: Na/K-ATPase/Src complex (Sus scrofa (Pig), UniProt P05024); test: Activation of receptor Na/K-ATPase/Src complex (pY418 Western blot); type: biochemical; details: reconstituted complex in test tube; ouabain 10 μM, MB7 1 and 10 μM
Description: FIG. 3: Effects of MB7 and ouabain on receptor Na/K-ATPase/Src complex. The purified Na/K-ATPase (2 μg) and purified Src were incubated in the presence of either 10 μM ouabain or 1 and 10 μM MB7 for 15 min and assayed for Src activation as described in “Experimental Procedures”. Values are mean SE of at least three independent experiments. **p<0.01 compared with control.
The activity of receptor Na/K-ATPase/Src complex was assayed. Briefly, the purified Src (4.5 U) was incubated with 2 μg of the purified Na/K-ATPase in phosphate-buffered saline (PBS) for 30 min at 37° C. Afterward, the Na/K-ATPase/Src complex was exposed to ouabain or MB7 for 10 min. Reaction was initiated by addition of 2 mM ATP/Mg^2+, continued for 5 min at 37° C. and was stopped by addition of SDS sample buffer. The activation of Src was measured by Western blot using anti-pY418 antibody. Total Src was also probed for loading control.

[7] = test system: Src in A549 cells; test: Src activation in A549 cells (Western blot); type: cell-based, human; details: 10 min; 100 nM ouabain, MB7 up to 10 μM
Description: FIG. 4A: Effects of MB7 and ouabain on Src and ERKs. A549 cells were treated with ouabain or MB7 for 10 min and cell lysates (50 μg/lane) were separated by SDS-PAGE and analyzed for Src activation as in FIG. 3. The values are mean±S.E. from four separate experiments. *, p<0.05 versus control.
The pig kidney epithelia cells (LLC-PK1 cells) and human lung cancer cells (A549 cells) were obtained from ATCC and maintained in Dulbecco's modified Eagle's medium (DMEM) in the presence of 10% FBS, 100 units/ml penicillin, and 100 μg/ml streptomycin in a 5% CO2 humidified incubator. To eliminate the confounding effect of growth factors in the serum, cells were serum starved for 24 h before experiments unless otherwise indicated.
Cells were washed with PBS and solubilized in ice-cold RIPA buffer containing 1% Nonidet P-40, 1% sodium deoxycholate, 150 mM NaCl, 1 mM EDTA, 1 mM phenylmethylsulfonyl fluoride, 1 mM sodium orthovanadate, 1 mM NaF, 10 μg/ml aprotinin, 10 μg/ml leupeptin, and 50 mM Tris-HCl (pH 7.4) as previously described (13). Cell lysates were then cleared by centrifugation at 14,000 rpm, and supernatants were used for protein assay and subjected to Western blot analysis. Samples were separated on SDS-PAGE (50 μg/lane) and transferred to a cellulose membrane. […] Protein signals were detected using an ECL kit and quantified using a Bio-Rad GS-670 imaging densitometer.

[8] = molecular target: Na-ATPase (Sus scrofa (Pig), UniProt P05024); test: Na-ATPase activity inhibition; type: biochemical
Description: In the experiments depicted in FIG. 1A, the dose-response curves of MB7 were compared with ouabain. […] Furthermore, 10 μM MB7 produced 58±6% inhibition of Na-ATPase as did on Na/K-ATPase.

[9] = test system: ERKs in LLC-PK1 cells; test: p-ERK immunostaining in LLC-PK1 cells; type: cell-based, pig; details: for cellular ERK activity (active ERKs by immunostaining): LLC-PK1, 10 min, 100 nM ouabain, MB7 from 100 nM to 10 μM
Description: FIG. 4B: LLC-PK1 cells were treated with MB7 or ouabain for 10 minutes and were immunostained with the ERK/MAPK (Phospho-Thr202/Tyr204) Phosphorylation/Translocation Cell-Based Assay Kit according to the manufacturer's instructions. The images were collected as described under “Experimental Procedures.” The scale bar represents […]. Images from a representative experiment are shown. The quantitative data of p-ERK were collected from 40 different fields in three independent experiments and expressed as mean±S.E. *, p<0.05 versus control.
as §1, with “MB7” for “MB5”
as §1

[10] = inhibition of purified pig kidney Na/K-ATPase, Table II, read-out: IC50

With `O=c1c2ccccc2oc2ccccc12` [xanthone, reference compound] the “inhibition of Na/K-ATPase activity” value ([1]; dose-response curves) was “failed to inhibit; also recorded: no detectable inhibition”.

For `O=c1c2cccc(O)c2oc2c(O)c(O)ccc12` [MB5, 3,4,5-Trihydroxyxanthone], the “effect on ERK activation induced by EGF or dopamine” value [2] was “failed to affect ERK activation”, the IC50 [1, 10] was 10 µM and the “effect on ouabain-induced activation of ERKs” value ([3]; MB5 at 1 nM) was “significantly reduce”. The “effect on ouabain-induced activation of ERKs” value ([3]; MB5 at 10 μM) was “completely blocked”, the inhibition at 50 µM ([4]; at about 50 μM, read-out: inhibition by low affinity binding) was 100% and the “inhibition of the ATPase activity by high affinity inhibition” value ([4]; high affinity phase) was “about 25%”. For the same compound, the IC50 ([4]; high affinity site, sub-nM concentrations) was 0.04 nM, the “concentration at which significant inhibition of ouabain binding was detected” value [5] was 0.1 nM and the “maximal inhibition of ouabain binding” value ([5]; 10 μM MB5) was 30%.

For `O=c1c2ccc(O)c(O)c2oc2c(O)c(O)ccc12` [MB7, 3,4,5,6-Tetrahydroxyxanthone], the “activation of Na/K-ATPase-associated Src” value [6] was “failed to activate Src”, the “Src activation in A549 cells” value [7] was “failed to do the same” and the inhibition at 10 µM [8] was 58 ± 6%. The “effect on Na+ and ATP affinities of Na/K-ATPase” value ([1]; MB7 at 10 μM, substrate dependence, FIG. 2A-2B) was “reduced both Na^+ and ATP affinities”, the “effect of changes in K+ concentration on compound-induced inhibition of Na/K-ATPase” value [1] was “no effect” and the IC50 ([1]; dose-dependent inhibition of Na/K-ATPase, FIG. 1A, read-out: apparent IC50) was 5 µM. The IC50 [1, 10] was 5 µM and the “cellular ERK activity (active ERKs by immunostaining)” value [9] was “failed to affect cellular ERK activity”.

With `COc1cc(O)c2c(=O)c3c(O)c(OC)ccc3oc2c1` [2027BA2] the IC50 [1, 10] was greater than 100 µM.

In the case of `O=c1c2cccc(O)c2oc2cc(O)cc(O)c12` [MB3, 1,3,5-Trihydroxyxanthone], the IC50 [1, 10] is reported as 65 µM.

`O=c1c2ccccc2oc2cc(O)cc(O)c12` [MB1, 1,3-Dihydroxyxanthone] showed an IC50 [1, 10] greater than 100 µM.

For `COc1cc(O)c2c(=O)c3c(OC)c(O)ccc3oc2c1` [2027BA1], the IC50 [1, 10] was greater than 100 µM.

`COc1ccc2c(=O)c3ccc(OC)c(OC)c3oc2c1` [MB8] showed an IC50 [1, 10] greater than 100 µM.

Compound `O=c1c2ccc(O)c(O)c2oc2cc(O)cc(O)c12` [MB6, 1,3,5,6-Tetrahydroxyxanthone] has an IC50 [1, 10] of 60 µM.

`O=c1c2ccccc2oc2c(O)c(O)ccc12` [MB2, 3,4-Dihydroxyxanthone] showed an IC50 [1, 10] greater than 100 µM.

In the case of `COc1ccc2oc3cc(OC)c(OC)c(OC)c3c(=O)c2c1` [C-017], the IC50 [1, 10] is reported as greater than 100 µM.

For `C[C@@H]1O[C@@H](O[C@H]2C[C@@H](O)[C@]3(CO)[C@H]4[C@H](O)C[C@]5(C)[C@@H](C6=CC(=O)OC6)CC[C@]5(O)[C@@H]4CC[C@]3(O)C2)[C@H](O)[C@H](O)[C@H]1O` [ouabain], the “activation of Na/K-ATPase-associated Src” value [6] was “stimulated”, the “Src activation in A549 cells” value [7] was “stimulated Src” and the IC50 [1] was roughly 5 µM. The “effect of changes in K+ concentration on compound-induced inhibition of Na/K-ATPase” value [1] was “antagonized”, the “cellular ERK activity (active ERKs by immunostaining)” value [9] was “increased cellular amount of active ERKs” and the ERK stimulation ([9]; LLC-PK1, ouabain 1 nM and 100 nM, time and concentration-dependent) was “stimulated ERKs”.
